Measurements taken from ChEMBL document CHEMBL5550190 (J Med Chem, 2024).

Legend:
A549 = test: Antitumor activity against human A549 cells incubated for 48 hrs; format: functional
HCT-116 = test: Antitumor activity against human HCT-116 cells incubated for 48 hrs; format: functional
Hs-578T = test: Antitumor activity against human Hs-578T cells incubated for 48 hrs; format: functional
[1] = Intrinsic clearance in human hepatocytes measured per million cells incubated for 120 mins by LC-MS/MS analysis; format: ADME, cell-based, Hepatocyte; conditions: read-out: CLH
MDA-MB-231 [2] = test: Antitumor activity against human MDA-MB-231 cells incubated for 48 hrs by Celltiter Blue reagent based 2D microtiter assay; format: functional
MDA-MB-231 [3] = test: Antitumor activity against human MDA-MB-231 cells incubated for 48 hrs in presence of 1.5% BSA by Celltiter Blue reagent based 2D microtiter assay; format: functional
MDA-MB-231 [4] = test: Antitumor activity against human MDA-MB-231 cells incubated for 48 hrs by Celltiter Blue reagent based 3D microtiter assay; format: functional
MDA-MB-231 [5] = test: Antitumor activity against human MDA-MB-231 cells incubated for 48 hrs in presence of 1.5% BSA by Celltiter Blue reagent based 3D microtiter assay; format: functional
BMDM = test: Growth inhibition of mouse BMDMs; format: functional, cell-based
Cannabinoid receptor 2 = Cannabinoid receptor 2 (Homo sapiens, UniProt P34972); test: Inhibition of CB2 (unknown origin); format: single protein
Cannabinoid receptor 2, sequence (P34972 whole entry): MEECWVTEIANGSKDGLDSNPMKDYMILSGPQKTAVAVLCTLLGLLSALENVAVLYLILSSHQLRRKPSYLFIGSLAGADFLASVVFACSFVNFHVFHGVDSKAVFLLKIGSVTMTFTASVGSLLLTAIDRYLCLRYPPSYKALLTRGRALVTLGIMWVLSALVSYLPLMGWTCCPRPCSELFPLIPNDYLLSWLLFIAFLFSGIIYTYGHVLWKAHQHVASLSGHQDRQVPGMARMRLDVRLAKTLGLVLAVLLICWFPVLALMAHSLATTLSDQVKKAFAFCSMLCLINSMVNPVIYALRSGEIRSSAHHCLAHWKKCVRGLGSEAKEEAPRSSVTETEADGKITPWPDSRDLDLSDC

GI50 (A549): < 5 nM
GI50 (HCT-116): < 5 nM
hepatocyte CLint [1]: 8.5 µL/min/1e6 cells
GI50 (MDA-MB-231 [2]): < 1 nM
GI50 (MDA-MB-231 [3]): < 1 nM
GI50 (MDA-MB-231 [4]): 2.12 nM
GI50 (MDA-MB-231 [5]): 9.47 nM
IC50 (Cannabinoid receptor 2): 4700 nM
SMILES: [2H]C([2H])([2H])Oc1cc(C(=O)Nc2cc3c(cc2Oc2cc(C)cc(C)c2)C(=O)N[C@@H](CC(=O)N(OC([2H])([2H])[2H])C([2H])([2H])[2H])C(=O)N3)c(Br)c(OC([2H])([2H])[2H])c1OC([2H])([2H])[2H]
GI50 (Hs-578T): < 5 nM
IC50 (BMDM): 1420 nM
